# Source: publication PMC6150792 (Pain, 2018)
# Several values for one entry are separate records, joined by “and”; a condition that tells them apart may be missing. Equal entries are not always repeated. Where two headings read alike, the source gives them in different places. Ends that are not written are not given here.
# Columns and labels:
# [1] = system: presynaptic N-type voltage-gated calcium channels; conditions: ref [66]; cited from earlier work
# [2] = system: model of postoperative, neuropathic, pain, and cephalic pain; conditions: ref [63], [65]; cited from earlier work
# [3] = system: CRMP2 residue S522 phosphorylation by Cdk5; conditions: ref [66]; cited from earlier work
# [4] = system: cytosolic Na+ in cultured DRG neurons; experiment: Sodium fluorescence imaging; type: cell-based, rat
# [5] = system: SUMOylation; conditions: cited from earlier work
# [6] = system: naïve male SD rats
# [7] = system: humans; conditions: current clinically used medication; no reference given; cited from earlier work
# [8] = system: NaV1.7; conditions: CAD cells; ref [20]; [21]; cited from earlier work
# [9] = target: recombinant human CRMP2-His (collapsin response mediator protein 2) (human) (UniProt Q16555); experiment: MST
# [10] = target: recombinant human CRMP2-His (collapsin response mediator protein 2) (human) (UniProt Q16555); experiment: MST; remark: listed apart in the source
# [11] = target: recombinant human CRMP2-His (collapsin response mediator protein 2) (human) (UniProt Q16555); experiment: MST; remark: listed apart in the source
# [12] = target: recombinant human CRMP2-His (collapsin response mediator protein 2) (human) (UniProt Q16555); experiment: AlphaScreen or HTRF
# [13] = target: recombinant human CRMP2-His (collapsin response mediator protein 2) (human) (UniProt Q16555); experiment: MST; remark: listed apart in the source
# [14] = target: CRMP2; experiment: Microscale thermophoresis; parameters: species or system human; conditions: read-out: apparent Kd, Ubc9 binding to CRMP2; MST; Ubc9-GST 0.003-100 μM; NT-647 labeled CRMP2; PBS-T (0.05% Tween-20), room temperature, 10 min; no cofactor; mean ± SEM, n=3
# [15] = target: Ubc9-CRMP2 interaction (Homo sapiens, UniProt P63279); experiment: ALPHA assay, Ubc9-GST binding to CRMP2-His and its disruption; conditions: binding stable over at least this window
# [16] = target: Ubc9 (Homo sapiens, UniProt P63279); experiment: MST, t-CSM binding to NT-647 labeled Ubc9
# [17] = system: SNI rats; conditions: rat, in vivo
compound,measurement,setting,value
COC[C@H](NC(C)=O)C(=O)NCc1ccccc1 [(S)-lacosamide],calcium influx,[1],decrease of calcium influx
same,thermal hypersensitivity and mechanical allodynia,[2],mitigation of thermal hypersensitivity and mechanical allodynia
same,CRMP2 phosphorylation by Cdk5,[3],inhibiting phosphorylation by Cdk5
C[C@@H]1O[C@@H](O[C@H]2C[C@@H](O)[C@]3(CO)[C@H]4[C@H](O)C[C@]5(C)[C@@H](C6=CC(=O)OC6)CC[C@]5(O)[C@@H]4CC[C@]3(O)C2)[C@H](O)[C@H](O)[C@H]1O [Ouabain],effect on [Na+]c of ouabain alone,"[4]; ouabain 1 mM alone, SBFI",increase in [Na^+]c
"NC1=N[C@H](O)[C@H]2[C@H]3O[C@]4(O)O[C@@H]([C@@H](O)[C@@]2(N1)[C@@H]4O)[C@]3(O)CO [TTX, tetrodotoxin]",ouabain-induced increase in [Na+]c,[4],inhibited
C[C@H]1Oc2cc3c(-c4c(O)cc(O)c5c(O)c6c(cc45)O[C@H](C)[C@@H](C)C6=O)c(O)cc(O)c3c(O)c2C(=O)[C@@H]1C [chaetochromin A],inhibition of SUMOylation,[5]; ref [35],inhibitors of SUMOylation
NCC1(CC(=O)O)CCCCC1 [gabapentin],ability to remain on the rotating rod,"[6]; gabapentin, naïve rats, data not shown",decrease in the ability of naïve rats to remain on the rotating rod
same,sedation in humans,[7],severe sedation in humans
C[C@@H]1O[C@@H](O[C@H]2[C@H](O)C[C@H](c3ccc4c(c3O)C(=O)C3=C(C4=O)[C@@]4(O[C@H]5CC[C@H](O)[C@H](C)O5)C(=O)C[C@](C)(O)C[C@@]4(O)C=C3)O[C@@H]2C)CC[C@@H]1O[C@H]1C[C@@H](O)[C@H](O)[C@@H](C)O1 [kerriamycin B],inhibition of SUMOylation,[5]; ref [28],inhibitors of SUMOylation
COC(=CC(=O)O)C1c2cc3ccc(-c4ccc5cc6c(c(O)c5c4O)C(=O)CC(C)(O)C6C(=CC(=O)O)OC)c(O)c3c(O)c2C(=O)CC1(C)O (stereo not shown) [spectomycin B1],inhibition of SUMOylation,[5]; ref [35],inhibitors of SUMOylation
COC1=C(c2c(OC)cc3cc4c(c(O)c3c2O)C(=O)O[C@H](C)C4)C(=O)c2c(cc3c(c2O)C(=O)O[C@H](C)C3)C1=O [viomellein],inhibition of SUMOylation,[5]; ref [35],inhibitors of SUMOylation
Huwentoxin-IV,contribution of NaV1.7 to total sodium currents by isoform-specific blockade,[8],~ 80%
Ubc9-GST fusion protein (E2 SUMO-conjugating enzyme Ubc9) (from UniProt P63279 1-158),Kd,[9],7.6 µM
same,Kd,[10],26 µM
same,Kd,[11],25.5 µM
same,Kd,[12],0.8 µM
same,Kd,[13],12.2 µM
same,other,[13],80 µM and 137 µM
"Ubc9: E2 SUMO-conjugating enzyme, recombinant Ubc9-GST fusion protein",Kd,[14],12.2 ± 2.7 µM
same,stability of Ubc9-CRMP2 binding signal,[15],≥ 18 h
YGRKKRRQRRRGKMDENQ [t-CSM],Kd,[16],0.4 ± 0.1 µM
same,motor impairment or sedation,"[6]; rat, in vivo",no motor impairment or sedation
same,time on rotarod,"[6]; rat, in vivo",180 ± 0 s
same,motor performance in SNI rats,[17],did not affect motor performance at any time point
ginkgolic acid,inhibition of SUMOylation,[5]; ref [27],inhibitors of SUMOylation
